{
  "source": "patent EP1144365B1",
  "about": "(TANABE SEIYAKU CO., LTD., priority 1998, dated 2000)",
  "key": {"α4β1": {"target": "T1, α4β1 (Homo sapiens, UniProt P05556+P13612)", "T1 construct": "100 µl of Jurkat cells (2.5 x 10^6 cells/ml) in DMEM plus BSA; host or cells: Jurkat T-cell line", "T1 sequence (P13612 34-1032)": "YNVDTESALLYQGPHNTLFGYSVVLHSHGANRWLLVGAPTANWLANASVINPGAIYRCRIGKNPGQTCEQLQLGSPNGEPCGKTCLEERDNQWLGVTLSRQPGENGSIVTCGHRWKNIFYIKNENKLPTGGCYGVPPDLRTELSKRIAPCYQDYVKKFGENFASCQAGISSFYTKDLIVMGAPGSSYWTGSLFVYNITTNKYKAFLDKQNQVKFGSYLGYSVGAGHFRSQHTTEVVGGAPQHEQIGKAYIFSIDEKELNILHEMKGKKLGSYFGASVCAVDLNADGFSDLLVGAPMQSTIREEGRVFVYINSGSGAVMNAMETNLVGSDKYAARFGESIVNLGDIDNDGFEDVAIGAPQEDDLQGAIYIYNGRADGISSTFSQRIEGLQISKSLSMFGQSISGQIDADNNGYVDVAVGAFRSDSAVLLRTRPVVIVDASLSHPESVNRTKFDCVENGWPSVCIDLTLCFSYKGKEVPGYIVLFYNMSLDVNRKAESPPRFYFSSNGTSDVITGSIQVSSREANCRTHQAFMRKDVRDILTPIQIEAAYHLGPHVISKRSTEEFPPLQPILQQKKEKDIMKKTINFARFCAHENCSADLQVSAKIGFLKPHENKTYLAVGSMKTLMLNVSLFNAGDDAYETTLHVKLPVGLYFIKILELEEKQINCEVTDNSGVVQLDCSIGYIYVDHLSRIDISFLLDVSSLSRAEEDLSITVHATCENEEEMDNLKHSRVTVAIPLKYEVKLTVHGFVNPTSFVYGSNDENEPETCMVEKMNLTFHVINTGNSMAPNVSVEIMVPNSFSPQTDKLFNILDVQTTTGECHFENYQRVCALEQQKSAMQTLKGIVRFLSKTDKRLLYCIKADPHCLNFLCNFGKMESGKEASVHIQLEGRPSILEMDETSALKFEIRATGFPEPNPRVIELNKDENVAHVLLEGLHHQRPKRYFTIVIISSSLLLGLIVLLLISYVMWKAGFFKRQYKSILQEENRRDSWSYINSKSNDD", "T1 sequence (P05556 21-798)": "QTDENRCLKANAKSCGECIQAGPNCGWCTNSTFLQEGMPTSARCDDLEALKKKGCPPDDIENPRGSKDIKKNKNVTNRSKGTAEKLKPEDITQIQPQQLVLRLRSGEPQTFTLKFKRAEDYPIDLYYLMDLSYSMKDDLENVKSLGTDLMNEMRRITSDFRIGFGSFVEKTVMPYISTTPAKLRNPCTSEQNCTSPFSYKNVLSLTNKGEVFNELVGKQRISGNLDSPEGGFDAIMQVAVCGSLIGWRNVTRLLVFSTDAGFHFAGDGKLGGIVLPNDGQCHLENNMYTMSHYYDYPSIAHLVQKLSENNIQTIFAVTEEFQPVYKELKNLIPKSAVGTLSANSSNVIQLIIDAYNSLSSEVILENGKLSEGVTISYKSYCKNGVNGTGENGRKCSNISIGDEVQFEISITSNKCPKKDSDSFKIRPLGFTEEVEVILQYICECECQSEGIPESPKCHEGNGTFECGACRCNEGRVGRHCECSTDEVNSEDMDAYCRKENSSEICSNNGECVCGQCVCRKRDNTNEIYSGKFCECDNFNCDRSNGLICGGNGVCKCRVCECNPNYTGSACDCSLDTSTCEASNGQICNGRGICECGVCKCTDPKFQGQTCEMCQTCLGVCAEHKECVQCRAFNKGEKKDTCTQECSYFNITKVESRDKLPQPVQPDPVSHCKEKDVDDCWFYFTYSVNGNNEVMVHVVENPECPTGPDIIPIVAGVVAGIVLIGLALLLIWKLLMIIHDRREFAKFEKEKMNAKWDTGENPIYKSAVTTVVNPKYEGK", "assay": "Jurkat-CS-1 assay", "assay_type": "cell-based", "details": "Jurkat cell adhesion to immobilized CS-1 derived peptide"}, "α4β1 integrin": {"target": "T2, α4β1 integrin (Homo sapiens, UniProt P05556+P13612)", "T2 construct": "a T-cell line, Jurkat, known to express the α4β1 integrin; host or cells: Jurkat T-cell line", "T2 sequence (P13612 34-1032)": "as the sequence (P13612 34-1032) above", "T2 sequence (P05556 21-798)": "as the sequence (P05556 21-798) above", "assay": "Jurkat-Endothelial Cell Adhesion Assay (Jurkat EC)", "assay_type": "cell-based", "details": "Jurkat cell adhesion to IL-1 stimulated endothelial cell monolayers", "outline": "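BCECF-loaded Jurkat T cells (5 x 10^5) mixed with compound, generally 100, 20, 5 and 1.25 µM, in DMEM-HSA, added to HUVEC monolayers prestimulated 4 h with 0.1 ng/ml IL-1. After washing, adherent-cell fluorescence read; % adhesion relative to no-compound control set at 100%.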"}},
  "data": [
    {"smiles": "CC(=O)[C@@H]1C[C@H](C(=O)N[C@@H](Cc2ccc(NC(=O)c3ccc(Cl)nc3Cl)cc2)C(=O)O)C1(C)C", "note": "[Example 107, (1S-cis)-N-[(3-Acetyl-2,2-dimethylcyclobutyl)carbonyl]-4-[[(2,6-dichloro-3-pyridinyl)carbonyl]amino]-L-phenylalanine]", "values": [
      {"measurement": "IC50", "setting": "α4β1", "value": "80 to 500", "unit": "nM"},
      {"measurement": "IC50", "setting": "α4β1 integrin", "value": "800 to 5000", "unit": "nM"}
    ]},
    {"smiles": "O=C(Nc1ccc(C[C@H](NC(=O)N2CCCC(C(=O)O)C2)C(=O)O)cc1)c1c(Cl)cccc1Cl", "note": "(stereo partly drawn) [Example 114, 1-[[[(1S)-1-carboxy-2-[4-[(2,6-dichlorobenzoyl)amino]phenyl]ethyl]amino]carbonyl]-3-piperidinecarboxylic acid]", "values": [
      {"measurement": "IC50", "setting": "α4β1", "value": "80 to 500", "unit": "nM"},
      {"measurement": "IC50", "setting": "α4β1 integrin", "value": "≤ 800", "unit": "nM"}
    ]},
    {"smiles": "O=C(Nc1ccc(C[C@H](NC(=O)N2CCCC(C(=O)O)C2)C(=O)O)cc1)c1c(Cl)cccc1Cl", "note": "(stereo partly drawn) [Example 115, 1-[[((1S)-1-carboxy-2-[4-[(2,6-dichlorobenzoyl)amino]phenyl]ethyl)amino]carbonyl]-3-piperidinecarboxylic acid]", "values": [
      {"measurement": "IC50", "setting": "α4β1", "value": "80 to 500", "unit": "nM"},
      {"measurement": "IC50", "setting": "α4β1 integrin", "value": "800 to 5000", "unit": "nM"}
    ]},
    {"smiles": "O=C(Nc1ccc(C[C@H](NC(=O)N2CCCC(C(=O)O)C2)C(=O)O)cc1)c1c(Cl)cccc1Cl", "note": "(stereo partly drawn) [Example 116, 1-[[[(1S)-1-carboxy-2-[4-[(2,6-dichlorobenzoyl)amino]phenyl]ethyl]amino]carbonyl]-3-piperidinecarboxylic acid]", "values": [
      {"measurement": "IC50", "setting": "α4β1", "value": "80 to 500", "unit": "nM"},
      {"measurement": "IC50", "setting": "α4β1 integrin", "value": "≤ 800", "unit": "nM"}
    ]},
    {"smiles": "O=C(Nc1ccc(C[C@H](NC(=S)N2CCCC(C(=O)O)C2)C(=O)O)cc1)c1c(Cl)cccc1Cl", "note": "(stereo partly drawn) [Example 117, 1-[[[(1S)-1-carboxy-2-[4-[(2,6-dichlorobenzoyl)amino]phenyl]ethyl]amino]thiocarbonyl]-3-piperidinecarboxylic acid]", "values": [
      {"measurement": "IC50", "setting": "α4β1", "value": "80 to 500", "unit": "nM"},
      {"measurement": "IC50", "setting": "α4β1 integrin", "value": "≤ 800", "unit": "nM"}
    ]},
    {"smiles": "CC1=C(C(=O)N[C@@H](Cc2ccc(NC(=O)c3c(Cl)cccc3Cl)cc2)C(=O)O)C(C)(C)CC/C1=C\\C(=O)O", "note": "[Example 118, N-[[(3E)-3-Carboxymethylene-2,6,6-trimethyl-1-cyclohexen-1-yl]carbonyl]-4-[(2,6-dichlorobenzoyl)amino]-L-phenylalanine]", "values": [
      {"measurement": "IC50", "setting": "α4β1", "value": "≤ 80", "unit": "nM"},
      {"measurement": "IC50", "setting": "α4β1 integrin", "value": "≤ 800", "unit": "nM"}
    ]},
    {"smiles": "CC1=C(C(=O)N[C@@H](Cc2ccc(OCc3c(Cl)cccc3Cl)cc2)C(=O)O)C(C)(C)CC/C1=C\\C(=O)O", "note": "[Example 119, N-[[(3E)-3-Carboxymethylene-2,6,6-trimethyl-1-cyclohexen-1-yl]carbonyl]-4-O-(2,6-dichlorophenylmethyl)-L-tyrosine]", "values": [
      {"measurement": "IC50", "setting": "α4β1", "value": "≤ 80", "unit": "nM"},
      {"measurement": "IC50", "setting": "α4β1 integrin", "value": "≤ 800", "unit": "nM"}
    ]},
    {"smiles": "CC1=C(C(=O)N[C@@H](Cc2ccc(NC(=O)c3c(Cl)cccc3Cl)cc2)C(=O)O)C(C)(C)CC/C1=C\\C#N", "note": "[Example 120, N-[[(3E)-3-Cyanomethylene-2,6,6-trimethyl-1-cyclohexen-1-yl]carbonyl]-4-[(2,6-dichlorobenzoyl)amino]-L-phenylalanine]", "values": [
      {"measurement": "IC50", "setting": "α4β1", "value": "≤ 80", "unit": "nM"},
      {"measurement": "IC50", "setting": "α4β1 integrin", "value": "≤ 800", "unit": "nM"}
    ]},
    {"smiles": "O=C(/C=C/c1ccc(C(=O)O)cc1)N[C@@H](Cc1ccc(NC(=O)c2c(Cl)cccc2Cl)cc1)C(=O)O", "note": "[Example 123]", "values": [
      {"measurement": "IC50", "setting": "α4β1", "value": "500 to 1000", "unit": "nM"},
      {"measurement": "IC50", "setting": "α4β1 integrin", "value": "5000 to 10000", "unit": "nM"}
    ]},
    {"smiles": "O=C(O)/C=C/c1cccc(C(=O)N[C@@H](Cc2ccc(NC(=O)c3c(Cl)cccc3Cl)cc2)C(=O)O)c1", "note": "[Example 124, N-[[3-[(E)-3-Hydroxy-3-oxo-1-propenyl]phenyl]carbonyl]-4-[(2,6-dichlorobenzoyl)amino]-L-phenylalanine]", "values": [
      {"measurement": "IC50", "setting": "α4β1", "value": "500 to 1000", "unit": "nM"},
      {"measurement": "IC50", "setting": "α4β1 integrin", "value": "800 to 5000", "unit": "nM"}
    ]},
    {"smiles": "O=C(O)/C=C/c1ccc(C(=O)N[C@@H](Cc2ccc(NC(=O)c3c(Cl)cccc3Cl)cc2)C(=O)O)cc1", "note": "[Example 125, N-[[4-[(E)-3-Hydroxy-3-oxo-1-propenyl]phenyl]carbonyl]-4-[(2,6-dichlorobenzoyl)amino] -L-phenylalanine]", "values": [
      {"measurement": "IC50", "setting": "α4β1", "value": "≤ 80", "unit": "nM"},
      {"measurement": "IC50", "setting": "α4β1 integrin", "value": "800 to 5000", "unit": "nM"}
    ]},
    {"smiles": "O=C(O)C=C1CCC(C(=O)N[C@@H](Cc2ccc(NC(=O)c3c(Cl)cccc3Cl)cc2)C(=O)O)CC1", "note": "(stereo partly drawn) [Example 126, N-[[4-(Carboxymethylene)cyclohexyl]carbonyl]-4-[(2,6-dichlorobenzoyl)amino]-L-phenylalanine]", "values": [
      {"measurement": "IC50", "setting": "α4β1", "value": "≤ 80", "unit": "nM"},
      {"measurement": "IC50", "setting": "α4β1 integrin", "value": "800 to 5000", "unit": "nM"}
    ]}
  ]
}
